Data on 18 compounds can be found in PMC8012719 (Frontiers in Pharmacology, 2021).

The subject of data set [1] is RABV CVS strain. Briefly: microbe, parasite or virus in culture. Type of data set: cell-based, rabies virus. The settings on record: for EC50: read-out: CVS EC50.
The test system of data set [2] is pVSV (pseudovirus expressing a vesicular stomatitis virus envelope glycoprotein). Briefly: microbe, parasite or virus in culture. The conditions noted are these: for EC50: read-out: pVSV EC50. Type of data set: cell-based.
Data set [3] is described as follows: in vitro. The conditions noted are these: human.
Data set [4] has as its system pRABV (pseudovirus enveloped by the RABV glycoprotein G). Briefly: microbe, parasite or virus in culture. Type of data set: cell-based, rabies virus. The conditions noted are these: for EC50: read-out: pRABV EC50.
In data set [5] the test system is 293T cells.
Data set [6] relates to Rabies virus CVS strain. The settings on record: mouse, in vivo.
Data set [7] in a line: in vitro. The settings on record: cat.
In data set [8] the test system is RABV. The data set is described as follows: microbe, parasite or virus in culture. The class given is cell-based. The settings on record: Lyssavirus rabies, in Felis catus.
Data set [9] is described as follows: physchem.
The target in data set [10] is RABV. Also on record: species or system rabies virus. The conditions noted are these: read-out: binding affinity (KD).
For data set [11], the system named is RABV CVS strain. The class given is cell-based, rabies virus.
Data set [12] is described as follows: in vitro. The settings on record: hamster.
The subject of data set [13] is RABV. The conditions noted are these: cited from earlier work.
The subject of data set [14] is rabies infection. The conditions noted are these: mouse, in vivo; cited from earlier work.
Data set [15] relates to RABV vaccine strain. The settings on record: cited from earlier work.

≈ marks a conversion by molar mass, not a printed value. Where “and” joins values, the source holds several entries; their conditions need not be identical. Identical values can stand only once. Counter-ions that a name gives are not always drawn. Like-named read-outs stand apart in the source and are kept apart here.

Turning to `CCOC(=O)C1=C(COCCN)NC(C)=C(C(=O)OC)C1c1ccccc1Cl` (stereo not drawn) [Amlodipine besylate], the SICVS in data set [1] amounted to 1.0. In addition, the EC50 (in general, the concentration that produces a half-maximal response) in data set [1] (Lyssavirus rabies, 24 h) stood at 37.4 µM; in data set [2] (Pseudovirus, HEK-293T), 26.4 µM; in [4] (Pseudovirus, HEK-293T, 48 h) it was 1.4 µM. Besides, the EC50pVSV/EC50pRABV in [2] is 19.4. The CC50 in data set [3] was determined as 36.3 µM. In data set [4], the “SI pRABV” value is recorded as 26.8.
For `CCOC(=O)C1=C(COCCN)NC(C)=C(C(=O)OC)C1c1ccccc1Cl` (stereo not drawn) [Amlodipine maleate], in data set [1], the SICVS is listed as 0.9 and the EC50 was 37.8 µM. For the same compound, in data set [2], the EC50pVSV/EC50pRABV is 13.3 and the EC50 turned out to be 25.8 µM. The compound further returned a CC50 in data set [5] of 34.9 µM. Besides, in data set [4], the “SI pRABV” value is 17.9 and the EC50 worked out at 1.9 µM.
Consider `CCN(CC)Cc1cc(Nc2ccnc3cc(Cl)ccc23)ccc1O` [Amodiaquine hydrochloride], for which the SICVS in [1] is recorded as 5.7. Also, the EC50 in data set [1] (Lyssavirus rabies, 24 h) came to 14.8 µM; in [2] (Pseudovirus, HEK-293T), 24.3 µM; in [4] (Pseudovirus, HEK-293T, 48 h) it was 4.2 µM. In [2], this compound gave an EC50pVSV/EC50pRABV of 5.8. In [3], the CC50 stood at 84.9 µM. Further, the “SI pRABV” value in [4] is 20.3.
On to `CC(C)N=c1cc2n(-c3ccc(Cl)cc3)c3ccccc3nc-2cc1Nc1ccc(Cl)cc1` [CFZA, Clofazimine aspirin salt], for which the concentration for a half-maximal effect (EC50) in [1] came out at 1.2 µM. The “survival rate at 14 dpi” value in data set [6] is recorded as 25%.
Turning to `CC(C)N=c1cc2n(-c3ccc(Cl)cc3)c3ccccc3nc-2cc1Nc1ccc(Cl)cc1` [CFZG, Clofazimine gallic acid salt], in [1], the EC50 is 2.07 µM. For the same compound, in [6], the “percentage of sick mice at five dpi” value stood at 40% and the “survival rate compared with the control” value is given as “no improvement on the survival rate”.
As to `CC(C)N=c1cc2n(-c3ccc(Cl)cc3)c3ccccc3nc-2cc1Nc1ccc(Cl)cc1` [CFZH, Clofazimine hydrochloride salt], the concentration giving a half-maximal response (EC50) in data set [1] stood at 1.2 µM. For the same compound, the “survival rate compared with the control” value in [6] is recorded as “no improvement on the survival rate”.
Taken in the same sequence, the figures for `CC(C)N=c1cc2n(-c3ccc(Cl)cc3)c3ccccc3nc-2cc1Nc1ccc(Cl)cc1` [CFZM, Clofazimine methanesulfonate] were 2.5 µM and “no improvement on the survival rate”.
In the case of `CC(C)N=c1cc2n(-c3ccc(Cl)cc3)c3ccccc3nc-2cc1Nc1ccc(Cl)cc1` [CFZS, Clofazimine salicylates], the EC50 in data set [1] came to 1.2 µM. The CC50 in data set [7] came to 670 µM. This compound displayed an EC50 in data set [8] of 4.71 µM. Further, in data set [6], the “percentage of sick mice at five dpi” value stood at 40%; the “survival at 14 dpi” value was 50% and 40%; the “survival rate at 14 dpi” value came to 30%. The “redness in the skin” value in data set [6] (po) is reported as “No redness in the skin”.
Consider `N.N.[Cl][Pt][Cl]` [Cisplatin], for which, in data set [1], the SICVS is listed as >3.0 and the EC50 was 67 µM. Besides, in [2], the EC50pVSV/EC50pRABV is >5.1 and the 50% effective concentration (EC50) was > 200 µM. Also, the CC50 in data set [5] was > 200 µM. In data set [4], the “SI pRABV” value was >5.1 and the EC50 turned out to be 39.1 µM.
Consider `CC(C)/N=c1\cc2n(-c3ccc(Cl)cc3)c3ccccc3nc-2cc1Nc1ccc(Cl)cc1` [Clofazimine], for which the “concentrations inhibiting RABV” value in data set [1] lay within 2 to 33 µM. In addition, the EC50 in data set [1] (Lyssavirus rabies, 24 h) came to 2.28 µM; in [1], 2.28 µM; in data set [2] (Pseudovirus, HEK-293T), 10.5 µM; in data set [8], 4.24 µM; in [4] (Pseudovirus, HEK-293T, 48 h), 1.7 µM. In addition, the solubility – broadly, how much of the substance goes into solution per volume – in data set [9] amounted to 0.29 µg/mL (≈ 0.613 µM). Also, the CC50 in data set [7] was 144 µM; in data set [3] it was > 200 µM; in data set [12] it was > 2200 µM. The dissociation constant Kd (commonly the concentration at which binding is half-saturated) in data set [10] stood at 4.32 µM. For the same compound, the “inhibitory effect on RABV infection” value in [11] is “strong inhibitory effect”. Moreover, the “suppression of fluorescence activity (RABV infection)” value in data set [11] was “no suppression of fluorescence activity”. Further, the “antiviral efficacy (survival)” value in [6] was “did not show any antiviral efficacy”. Further, the “percentage of sick mice at five dpi” value in data set [6] is 50%. The “survival at 14 dpi” value in [6] is 30%. In addition, in [6], the “survival rate at 14 dpi” value amounted to 10%.
For the compound `CC(CN1c2ccccc2S(=O)(=O)c2ccccc21)N(C)C.Cl` (stereo not drawn) [Dioxopromethazine hydrochloride], in data set [1], the SICVS is recorded as >3.0 and the half-maximal effective concentration (EC50) was 67 µM. In addition, in data set [2], the EC50pVSV/EC50pRABV is given as >5.5 and the EC50 is > 200 µM. Moreover, the CC50 in data set [5] is > 200 µM. In addition, in [4], the “SI pRABV” value is recorded as >5.5 and the EC50 came to 36.7 µM.
As to `CCc1c2c(nc3ccc(OC(=O)N4CCC(N5CCCCC5)CC4)cc13)-c1cc3c(c(=O)n1C2)COC(=O)[C@]3(O)CC.Cl` [Irinotecan hydrochloride], in [1], the SICVS is reported as 1.2 and the EC50 stood at 67 µM. In [2], the EC50pVSV/EC50pRABV was >5.9 and the EC50 was > 200 µM. Also, the CC50 in data set [5] is > 200 µM. In addition, in [4], the “SI pRABV” value is recorded as >5.9 and the EC50 was found to be 33.6 µM.
In the case of `CNC1(c2ccccc2Cl)CCCCC1=O` (stereo not drawn) [Ketamine], in data set [13], the “concentrations inhibiting RABV replication” value is 1 to 2 mM.
As to `CN1CCC(=C2c3ccccc3CC(=O)c3sccc32)CC1` [Ketotifen fumarate], the SICVS in data set [1] is >3.0. For the same compound, the half-maximal effective concentration (EC50) was determined as 67 µM in data set [1] (Lyssavirus rabies, 24 h); 87.8 µM in data set [2] (Pseudovirus, HEK-293T); 10.8 µM in data set [4] (Pseudovirus, HEK-293T, 48 h). The EC50pVSV/EC50pRABV in data set [2] is on record as 8.1. Further, the CC50 in [3] was > 200 µM. The “SI pRABV” value in data set [4] is >18.
Take `CNCCCC12CCC(c3ccccc31)c1ccccc12` [Maprotiline hydrochloride]: in data set [1], the SICVS is recorded as >4.5. Further, the CC50 in data set [3] turned out to be 52 µM.
Compound `CN1CCC(=C2c3ccccc3CCc3sccc32)CC1` [Pizotifen] came in with an SICVS in data set [1] of 1.5. Also, the EC50 was 67 µM in data set [1] (Lyssavirus rabies, 24 h); 25.7 µM in data set [2] (Pseudovirus, HEK-293T); 3.1 µM in [4] (Pseudovirus, HEK-293T, 48 h). Also, the EC50pVSV/EC50pRABV in data set [2] is recorded as 8.2. In [3], this compound came in with a CC50 of 100 µM. Besides, the “SI pRABV” value in data set [4] turned out to be 32.3.
`NC(=O)c1nc(F)cnc1O` [T-705, 6-fluoro-3-hydroxy-2-pyrazinecarboxamide]: the “viral replication in the CNS” value in data set [14] is recorded as “suppress viral replication in the CNS”. The EC50 in data set [15] was 32.4 µM. For the same compound, the “survival at 14 dpi” value in data set [6] (po, 300 mg/kg/day) is on record as 40%.
Take `CCCCNc1ccc(C(=O)OCCN(C)C)cc1` [Tetracaine hydrochloride]: in data set [1], the SICVS is on record as >3.0. Moreover, the 50% effective concentration (EC50) was 67 µM in data set [1] (Lyssavirus rabies, 24 h); > 200 µM in data set [2] (Pseudovirus, HEK-293T); 65.8 µM in data set [4] (Pseudovirus, HEK-293T, 48 h). For the same compound, the EC50pVSV/EC50pRABV in [2] was >3. In data set [3], the CC50 is > 200 µM. Further, in [4], the “SI pRABV” value is reported as >3.
